Source: patent publication US8030341B2, “Dmt-derivative compounds and related compositions and methods of use” (priority 2005, dated 2011)
Like-named read-outs stand apart in the source and are kept apart here. Non-standard residues stand in square brackets, D forms with d. Residues, ends and D or L forms follow the SMILES beside them. Dmt = Cc1cc(O)cc(C)c1C[C@H](N)C(=O)O; Tic = O=C(O)[C@@H]1Cc2ccccc2CN1

Tests used:
δ-opioid receptor [1] = target: T1, δ-opioid receptor (Rattus norvegicus, UniProt P33533); assay: opioid receptor binding competition assay, rat brain P2 synaptosomal membranes (δ); conditions: for Ki(μ)/Ki(δ): Table 1, selectivity ratio
T1 construct: from tissue; host or cells: rat brain P2 synaptosomal membranes (Sprague-Dawley)
Description: (§1) Synaptosomes were preincubated to remove endogenous opioids, washed in excess ice-cold buffer containing protease inhibitor and stored in a glycerol-containing buffer with protease inhibitor at −80° C. as described in Lazarus et al., J. Med. Chem. 34:1350-55 (1991). […] After incubation, the radiolabeled membranes were rapidly filtered on Whatman GF/C glass fiber filters presoaked in 0.1% polyethylenimine in order to optimize the signal-to-noise ratio, washed with ice-cold BSA buffer, and dried at 75-80° C. Radioactivity was determined using EcoLume (ICN, Costa Mesa, Calif.). All compounds were analyzed in duplicate using 5-8 peptide dosages and several synaptosomal preparations in independent repetitions to ensure statistical significance. The affinity constants (Ki) were calculated according to Cheng and Prusoff (Cheng et al., Biochem. Pharmacol., 22: 3099-3108 ([…])).

μ-opioid receptor [2] = target: T2, μ-opioid receptor (Rattus norvegicus, UniProt P33535); assay: opioid receptor binding competition assay, rat brain P2 synaptosomal membranes (μ); conditions: for Ki(δ)/Ki(μ): selectivity ratio
T2 construct: from tissue; host or cells: rat brain P2 synaptosomal membranes (Sprague-Dawley)
Description: as §1

δ-opioid receptor [3] = target: T3, δ-opioid receptor (Mus musculus, UniProt P32300); assay: mouse vas deferens (MVD) bioassay; assay type: cell-based; conditions: for MVD Antagonist pA2 (nM), value in parentheses (Ke): versus deltorphin II, antilog of pA2
T3 construct: from tissue; host or cells: isolated mouse vas deferens
From the text: Bioorg. Med. Chem., 11: 675-678 (2003). The isolated tissues were suspended in organ baths containing balanced salt solutions in a physiological buffer, pH 7.5. […]

μ-opioid receptor [4] = target: T4, μ-opioid receptor (Cavia porcellus, UniProt P97266); assay: guinea pig ileum (GPI) bioassay; assay type: cell-based
Description: The myenteric plexus longitudinal muscle preparations (2-3 cm segments) from the small intestine of male Hartley strain guinea pigs (GP1) measured μ-opioid receptor agonism and a single mouse vas deferens (MVD) was used to determine δ-opioid receptor agonism as described in Sasaki et al. Bioorg. […] The isolated tissues were suspended in organ baths containing balanced salt solutions in a physiological buffer, pH 7.5. Agonists were tested for the inhibition of electrically evoked contraction and expressed as IC50 (nM) obtained from the dose-response curves.

δ-opioid receptor [5] = target: T1, δ-opioid receptor; conditions: Table 3; reference rows marked e, f, g (no SE, no n); cited from earlier work
μ-opioid receptor [6] = target: T2, μ-opioid receptor; conditions: Table 3, reference rows marked e, f, cited from earlier work; for Ki(δ)/Ki(μ): g
δ-opioid receptor [7] = target: T3, δ-opioid receptor; conditions: Table 2; reference value marked 6a; cited from earlier work
μ-opioid receptor [8] = target: T4, μ-opioid receptor; conditions: Table 2; reference value marked 6a; cited from earlier work

T2 sequence (P33535 whole entry): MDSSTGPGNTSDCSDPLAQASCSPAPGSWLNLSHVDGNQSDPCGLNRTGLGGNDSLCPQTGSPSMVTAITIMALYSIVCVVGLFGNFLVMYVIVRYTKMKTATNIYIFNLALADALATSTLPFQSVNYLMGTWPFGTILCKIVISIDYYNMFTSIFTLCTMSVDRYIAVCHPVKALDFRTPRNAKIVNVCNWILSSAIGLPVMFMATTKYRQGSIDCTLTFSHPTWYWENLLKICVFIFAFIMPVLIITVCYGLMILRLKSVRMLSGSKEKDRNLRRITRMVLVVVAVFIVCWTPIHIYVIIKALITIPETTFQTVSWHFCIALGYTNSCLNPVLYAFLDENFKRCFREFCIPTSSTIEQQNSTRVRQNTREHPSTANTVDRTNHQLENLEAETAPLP
T3 sequence (P32300 whole entry): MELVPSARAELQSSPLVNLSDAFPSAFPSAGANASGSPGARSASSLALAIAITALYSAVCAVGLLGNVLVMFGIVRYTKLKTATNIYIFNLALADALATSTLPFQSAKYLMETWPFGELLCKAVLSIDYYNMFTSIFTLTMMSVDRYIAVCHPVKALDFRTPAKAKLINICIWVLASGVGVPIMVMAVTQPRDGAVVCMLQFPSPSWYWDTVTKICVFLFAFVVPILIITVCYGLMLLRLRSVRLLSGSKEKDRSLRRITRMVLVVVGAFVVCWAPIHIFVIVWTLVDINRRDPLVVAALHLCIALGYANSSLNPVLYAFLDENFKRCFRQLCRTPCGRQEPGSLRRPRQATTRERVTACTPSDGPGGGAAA
T4 sequence (P97266 whole entry, looked up): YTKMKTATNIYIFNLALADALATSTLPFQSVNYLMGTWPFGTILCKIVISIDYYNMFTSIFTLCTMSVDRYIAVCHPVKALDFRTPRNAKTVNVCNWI
T1 sequence (P33533 whole entry): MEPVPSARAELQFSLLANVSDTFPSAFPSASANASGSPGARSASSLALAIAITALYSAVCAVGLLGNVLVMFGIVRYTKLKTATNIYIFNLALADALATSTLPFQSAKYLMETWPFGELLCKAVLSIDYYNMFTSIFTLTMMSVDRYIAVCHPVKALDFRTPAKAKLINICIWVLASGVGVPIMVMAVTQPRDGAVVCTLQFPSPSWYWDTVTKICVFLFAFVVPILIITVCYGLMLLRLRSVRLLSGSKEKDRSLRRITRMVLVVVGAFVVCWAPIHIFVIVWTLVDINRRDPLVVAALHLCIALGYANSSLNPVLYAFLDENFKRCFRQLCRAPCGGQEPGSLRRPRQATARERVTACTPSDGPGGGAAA

Structure (SMILES): Cc1cc(O)cc(C)c1CC(N)C(=O)N1Cc2ccccc2CC1C(=O)NCCCCNC(=O)C1Cc2ccccc2CN1C(=O)C(N)Cc1c(C)cc(O)cc1C (stereo not drawn) [Compound 18, 1,4-Bis(Dmt-Tic-amino)butane]
- Ki (δ-opioid receptor [1]): 0.124 ± 0.016 nM
- Ki(μ)/Ki(δ) (δ-opioid receptor [1]): 46
- Ki (μ-opioid receptor [2]): 5.72 ± 0.22 nM
- IC50 (δ-opioid receptor [3]): > 10000 nM
- MVD Antagonist pA2 (nM), value in parentheses (Ke) (δ-opioid receptor [3]; Table 2): 0.0309 nM
- IC50 (μ-opioid receptor [4]): > 10000 nM
- GPI Antagonist pA2 (nM), value in parentheses (Ke) (μ-opioid receptor [4]; Table 2, versus endomorphin-2, antilog of pA2): 102 nM

Structure (SMILES): Cc1cc(O)cc(C)c1CC(N)C(=O)N1Cc2ccccc2CC1C(=O)NCCCCCCNC(=O)C1Cc2ccccc2CN1C(=O)C(N)Cc1c(C)cc(O)cc1C (stereo not drawn) [Compound 19, 1,6-Bis(Dmt-Tic-amino)hexane]
- Ki (δ-opioid receptor [1]): 0.129 ± 0.03 nM
- Ki (μ-opioid receptor [2]): 1.79 ± 0.08 nM
- IC50 (δ-opioid receptor [3]): > 10000 nM
- MVD Antagonist pA2 (nM), value in parentheses (Ke) (δ-opioid receptor [3]; Table 2): 0.024 nM

Structure (SMILES): Cc1cc(O)cc(C)c1CC(N)C(=O)N1Cc2ccccc2CC1C(=O)NCCCCCCCCCCNC(=O)C1Cc2ccccc2CN1C(=O)C(N)Cc1c(C)cc(O)cc1C (stereo not shown) [Compound 20, 1,10-Bis(Drat-Tic-amino)decane]
- Ki (δ-opioid receptor [1]): 1.53 ± 0.16 nM
- Ki(μ)/Ki(δ) (δ-opioid receptor [1]): 3
- Ki (μ-opioid receptor [2]): 4.86 ± 0.41 nM
- IC50 (δ-opioid receptor [3]): > 10000 nM
- MVD Antagonist pA2 (nM), value in parentheses (Ke) (δ-opioid receptor [3]; Table 2): 0.0107 nM
- IC50 (μ-opioid receptor [4]): 5420 ± 1840 nM

Structure (SMILES): Cc1cc(O)cc(C)c1CC(C(=O)N1Cc2ccccc2CC1C(=O)NCCCCCCNC(=O)C1Cc2ccccc2CN1C(=O)C(Cc1c(C)cc(O)cc1C)N(C)C)N(C)C (stereo not drawn) [Compound 21, 1,6-Bis(N,N-Dimethyl-Dmt-Tic-NH)-hexane]
- Ki (δ-opioid receptor [1]): 0.06 ± 0.01 nM
- Ki(μ)/Ki(δ) (δ-opioid receptor [1]): 37
- Ki (μ-opioid receptor [2]): 2.21 ± 0.08 nM
- IC50 (δ-opioid receptor [3]): > 10000 nM
- MVD Antagonist pA2 (nM), value in parentheses (Ke) (δ-opioid receptor [3]; Table 2): 0.0052 nM
- IC50 (μ-opioid receptor [4]): > 10000 nM
- Kb (μ-opioid receptor [4]): 4 nM

Structure (SMILES): C=CCN(CC=C)[C@@H](Cc1ccc(O)cc1)C(=O)N1CCC[C@H]1C(=O)N[C@@H](Cc1ccccc1)C(=O)N[C@@H](Cc1ccccc1)C(N)=O [Compound 28, [N,N-Diallyl-Tyr^1]EM-2]
- Ki (δ-opioid receptor [1]): 5760 ± 1220 nM
- Ki (μ-opioid receptor [2]): 1050 ± 175 nM
- Ki(δ)/Ki(μ) (μ-opioid receptor [2]; Table 3): 6

Structure (SMILES): C=CCN[C@@H](Cc1ccc(O)cc1)C(=O)N1CCC[C@H]1C(=O)N[C@@H](Cc1ccccc1)C(=O)N[C@@H](Cc1ccccc1)C(N)=O [Compound 29, [N-allyl]EM-2]
- Ki (δ-opioid receptor [1]; Table 3, versus [3H]DPDPE, rat brain synaptosomes, read-out: Ki(δ)): 7360 ± 259 nM
- Ki(δ)/Ki(μ) (μ-opioid receptor [2]; Table 3): 57
- Ki (μ-opioid receptor [2]; Table 3, versus [3H]DAMGO, rat brain synaptosomes, read-out: Ki(μ)): 130 ± 9.27 nM

Structure (SMILES): C=CCN(CC=C)[C@@H](Cc1c(C)cc(O)cc1C)C(=O)N1CCC[C@H]1C(=O)N[C@@H](Cc1ccccc1)C(=O)N[C@@H](Cc1ccccc1)C(N)=O [Compound 30, [N,N-(allyl)2Dmt^1]EM-2]
- Ki(δ)/Ki(μ) (μ-opioid receptor [2]; Table 3): 108
- GPI pA2 (μ-opioid receptor [4]; Table 4, μ antagonism): None

Structure (SMILES): C=CCN[C@@H](Cc1c(C)cc(O)cc1C)C(=O)NCCCc1[nH]c(=O)c(CCCNC(=O)[C@H](Cc2c(C)cc(O)cc2C)NCC=C)nc1C [Compound 32, Bis-[(N-allyl)Dmt-NH-propyl]pyrazinone]
- Ki (δ-opioid receptor [1]): 51.5 ± 4.1 nM
- Ki (μ-opioid receptor [2]): 12.4 ± 1.1 nM
- Ki(δ)/Ki(μ) (μ-opioid receptor [2]; Table 3): 4
- Kb (δ-opioid receptor [3]): 269 nM
- IC50 (δ-opioid receptor [3]; Table 4, agonism, read-out: MVD): > 10000 nM
- Kb (μ-opioid receptor [4]): 67.6 nM
- IC50 (μ-opioid receptor [4]; Table 4, agonism, read-out: GPI): > 10000 nM
- pA2(μ)/pA2(δ) (μ-opioid receptor [4]; Table 4, selectivity of antagonism): 4

Structure (SMILES): Cc1cc(O)cc(C)c1CC(N)C(=O)NCCCc1cnc(CCCNC(=O)C(N)Cc2c(C)cc(O)cc2C)c(=O)[nH]1 (stereo not shown) [Compound 37, 3,6-Bis-[Dmt-NH-propyl]pyrazinone]
- Ki (δ-opioid receptor [5]): 13.2 nM
- Ki (μ-opioid receptor [6]; g (no SE, no n)): 0.042 nM
- Ki(δ)/Ki(μ) (μ-opioid receptor [6]): 307

Structure (SMILES): Cc1cc(O)cc(C)c1C[C@H](N)C(=O)N1Cc2ccccc2C[C@H]1C(=O)O [H-Dmt-Tic-OH, reference compound] (H-[Dmt]-[Tic]-OH)
- MVD agonist IC50, nM (δ-opioid receptor [3]; Table 2, inhibition of electrically evoked contraction): none

Structure (SMILES): Cc1cc(O)cc(C)c1C[C@H](N)C(=O)NCCCCCCNC(=O)[C@@H](N)Cc1c(C)cc(O)cc1C [H-Dmt[NH—(CH2)6—NH]Dmt-H]
- Ki(δ)/Ki(μ) (μ-opioid receptor [6]): 870

Structure (SMILES): Oc1ccc2c3c1O[C@H]1c4[nH]c5ccccc5c4C[C@@]4(O)[C@@H](C2)N(CC2CC2)CC[C@]314 [Naltrindole]
- MVD Antagonist pA2 (δ-opioid receptor [7]): 9.2
- MVD Antagonist pA2 (nM), value in parentheses (Ke) (δ-opioid receptor [7]): 0.631 nM
- GPI Antagonist pA2 (μ-opioid receptor [8]): 7.3
- GPI Antagonist pA2 (nM), value in parentheses (Ke) (μ-opioid receptor [8]): 50 nM
